Test results reported in article PMC4912077 (PLoS ONE, 2016).

Experiments:
Alpha2C = target: T1, Alpha2C (Homo sapiens, UniProt P18825); experiment: NIMH PDSP radioligand binding, Alpha2C
T1 sequence (P18825 1-462): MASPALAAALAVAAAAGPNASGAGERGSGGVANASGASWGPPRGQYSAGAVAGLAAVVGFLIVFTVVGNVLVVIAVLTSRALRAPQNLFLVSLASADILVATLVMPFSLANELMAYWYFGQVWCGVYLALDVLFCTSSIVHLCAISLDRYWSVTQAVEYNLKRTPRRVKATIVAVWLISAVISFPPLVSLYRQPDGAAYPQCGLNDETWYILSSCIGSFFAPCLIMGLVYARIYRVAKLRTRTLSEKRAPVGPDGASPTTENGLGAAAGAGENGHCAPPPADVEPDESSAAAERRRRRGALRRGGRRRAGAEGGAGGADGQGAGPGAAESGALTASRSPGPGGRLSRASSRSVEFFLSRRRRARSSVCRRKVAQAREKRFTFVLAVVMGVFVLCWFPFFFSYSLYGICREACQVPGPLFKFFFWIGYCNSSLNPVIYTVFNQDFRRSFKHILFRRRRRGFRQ
Experimental: (§1) Radioligands and concentrations used for additional 45 CNS receptor binding assays are listed as supporting information (S1 Table). This work was performed by the National Institute of Mental Health Psychoactive Drug Screening Program (NIMH PDSP) as described previously.[26] Briefly target compounds were dissolved in DMSO and subjected to a primary screen at 10,000 nM concentration. […] Additional experimental details are available in the NIMH PDSP assay protocol book.

NMDA receptor = experiment: NMDA receptor-mediated fEPSP (NMDAR-fEPSP) in CA1 of hippocampal slices; type: cell-based, rat; settings: 10 μM
Experimental: (§2) Male Wistar rats (Crl:Wi; Charles River, UK) aged 9–10 wk were sacrificed by neck vertebral dislocation (schedule 1 method) according to the United Kingdom (Scientific Procedures) Act of 1986. […] The brain was cut parasagittally into 400 μm sections and hippocampal slices were removed, stored and placed in a submerged recording chamber at 28–30°C. Recordings of synaptic activity were made, analyzed and presented as described. A bipolar electrode was used to deliver stimuli (0.03 Hz) to the Schaffer collateral pathway to enable recording of field excitatory synaptic potentials (fEPSPs) using a glass microelectrode positioned in the stratum radiatum of area CA1. […] After 30 min of stable control responses, 1 and 10 μM solutions of the individual compounds were added to the perfusate for 3–12 h while recording the amplitude and area of the NMDAR-fEPSP on-line using WinLTP [31]. Single exponential curves were fitted to the graphs and curves extrapolated to show likely half-times and minimum plateau responses achieved with each concentration of the compounds. Raw data for all fEPSP experiments are provided as supporting information (S2, S3 and S4 Files).

Sigma 2 = target: T2, Sigma 2 (Rattus norvegicus, UniProt Q5U3Y7); experiment: NIMH PDSP radioligand binding, Sigma 2
T2 sequence (Q5U3Y7 1-176): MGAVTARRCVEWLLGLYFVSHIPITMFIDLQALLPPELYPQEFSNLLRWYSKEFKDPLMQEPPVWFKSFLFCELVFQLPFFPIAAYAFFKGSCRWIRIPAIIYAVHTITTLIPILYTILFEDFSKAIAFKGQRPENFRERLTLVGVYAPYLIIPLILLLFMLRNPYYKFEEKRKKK
Experimental: as §1

Alpha2A = Alpha2A (Homo sapiens, UniProt P08913); experiment: NIMH PDSP radioligand binding, Alpha2A
Experimental: as §1

AMPA receptor = experiment: AMPA receptor-mediated fEPSP in hippocampal slices (2-MXP selectivity); type: cell-based, rat
Experimental: as §2
To examine the specificity of DPH analogues, 2-MXP was superfused at 50 (n = 2) and 100 μM (n = 1) in the absence of AMPA and GABA receptor antagonists (Fig 3C).

H3 = H3 (Homo sapiens, UniProt Q9Y5N1); experiment: NIMH PDSP radioligand binding, H3
Experimental: as §1

NET = NET (Homo sapiens, UniProt P23975); experiment: NIMH PDSP radioligand binding, NET
Experimental: as §1

M2 = M2 (Homo sapiens, UniProt P08172); experiment: NIMH PDSP radioligand binding, M2
Alpha2B = Alpha2B (Homo sapiens, UniProt P18089); experiment: NIMH PDSP radioligand binding, Alpha2B
Experimental: as §1

M1 = M1 (Homo sapiens, UniProt P11229); experiment: NIMH PDSP radioligand binding, M1
Sequence of M1 (P11229 whole entry): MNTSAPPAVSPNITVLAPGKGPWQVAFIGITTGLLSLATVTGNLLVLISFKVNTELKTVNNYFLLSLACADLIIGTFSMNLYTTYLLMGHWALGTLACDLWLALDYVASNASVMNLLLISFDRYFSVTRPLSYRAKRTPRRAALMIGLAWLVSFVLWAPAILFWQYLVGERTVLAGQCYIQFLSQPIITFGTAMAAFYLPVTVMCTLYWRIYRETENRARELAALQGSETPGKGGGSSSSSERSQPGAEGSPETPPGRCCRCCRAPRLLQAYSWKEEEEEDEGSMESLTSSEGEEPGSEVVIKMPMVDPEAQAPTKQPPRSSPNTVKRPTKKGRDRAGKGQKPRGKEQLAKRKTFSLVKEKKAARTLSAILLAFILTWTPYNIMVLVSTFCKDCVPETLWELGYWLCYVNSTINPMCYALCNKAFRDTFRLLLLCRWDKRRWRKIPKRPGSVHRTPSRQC

Sequence of Alpha2B (P18089 whole entry): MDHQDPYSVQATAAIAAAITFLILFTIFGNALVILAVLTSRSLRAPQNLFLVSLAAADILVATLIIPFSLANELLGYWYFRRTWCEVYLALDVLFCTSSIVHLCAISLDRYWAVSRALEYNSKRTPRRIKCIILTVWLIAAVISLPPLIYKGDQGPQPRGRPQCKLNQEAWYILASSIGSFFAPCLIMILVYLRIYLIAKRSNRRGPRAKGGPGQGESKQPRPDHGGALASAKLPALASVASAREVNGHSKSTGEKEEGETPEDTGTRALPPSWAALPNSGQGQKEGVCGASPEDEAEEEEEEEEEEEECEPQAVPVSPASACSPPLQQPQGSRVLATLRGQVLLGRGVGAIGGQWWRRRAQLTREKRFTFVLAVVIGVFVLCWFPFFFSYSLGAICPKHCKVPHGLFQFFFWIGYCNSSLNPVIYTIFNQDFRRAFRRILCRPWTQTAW
Sequence of H3 (Q9Y5N1 whole entry): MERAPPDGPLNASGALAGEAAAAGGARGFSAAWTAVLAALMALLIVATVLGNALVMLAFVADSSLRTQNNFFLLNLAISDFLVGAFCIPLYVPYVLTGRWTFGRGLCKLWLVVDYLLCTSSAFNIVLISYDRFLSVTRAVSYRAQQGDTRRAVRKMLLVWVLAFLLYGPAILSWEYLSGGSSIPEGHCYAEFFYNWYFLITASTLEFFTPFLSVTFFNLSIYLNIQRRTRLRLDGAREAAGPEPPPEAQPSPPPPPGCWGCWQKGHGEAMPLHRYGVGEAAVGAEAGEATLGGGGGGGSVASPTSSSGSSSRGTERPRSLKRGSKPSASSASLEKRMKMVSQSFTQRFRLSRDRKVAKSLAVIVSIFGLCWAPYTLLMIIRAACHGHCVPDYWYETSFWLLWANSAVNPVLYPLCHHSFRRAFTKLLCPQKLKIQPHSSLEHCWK
Sequence of Alpha2A (P08913 whole entry): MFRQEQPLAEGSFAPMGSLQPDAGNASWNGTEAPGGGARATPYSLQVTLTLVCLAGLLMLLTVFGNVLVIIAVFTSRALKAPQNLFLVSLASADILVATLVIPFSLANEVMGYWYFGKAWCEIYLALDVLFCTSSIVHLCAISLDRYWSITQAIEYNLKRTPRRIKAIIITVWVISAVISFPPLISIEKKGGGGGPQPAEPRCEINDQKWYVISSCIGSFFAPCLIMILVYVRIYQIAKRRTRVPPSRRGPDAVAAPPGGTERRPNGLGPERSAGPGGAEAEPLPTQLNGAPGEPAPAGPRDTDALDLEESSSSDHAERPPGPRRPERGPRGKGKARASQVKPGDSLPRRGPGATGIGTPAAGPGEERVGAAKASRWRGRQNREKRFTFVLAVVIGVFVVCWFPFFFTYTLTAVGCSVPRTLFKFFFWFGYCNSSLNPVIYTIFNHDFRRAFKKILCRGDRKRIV
Sequence of NET (P23975 whole entry): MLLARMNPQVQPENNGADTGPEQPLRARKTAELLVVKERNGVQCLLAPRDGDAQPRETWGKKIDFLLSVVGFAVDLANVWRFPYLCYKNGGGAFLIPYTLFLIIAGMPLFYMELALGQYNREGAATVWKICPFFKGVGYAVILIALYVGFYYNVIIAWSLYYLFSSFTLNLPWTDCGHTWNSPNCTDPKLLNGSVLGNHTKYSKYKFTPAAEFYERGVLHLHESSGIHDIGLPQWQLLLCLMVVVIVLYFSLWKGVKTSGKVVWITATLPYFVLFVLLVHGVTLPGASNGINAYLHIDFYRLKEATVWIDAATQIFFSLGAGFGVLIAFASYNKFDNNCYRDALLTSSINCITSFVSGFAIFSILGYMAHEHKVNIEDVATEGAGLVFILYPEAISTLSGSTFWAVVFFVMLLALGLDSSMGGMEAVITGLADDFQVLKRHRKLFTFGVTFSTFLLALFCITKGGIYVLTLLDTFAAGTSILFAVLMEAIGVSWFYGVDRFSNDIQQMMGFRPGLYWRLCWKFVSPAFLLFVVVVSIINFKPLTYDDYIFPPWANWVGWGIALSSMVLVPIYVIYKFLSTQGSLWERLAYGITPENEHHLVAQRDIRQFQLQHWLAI
Sequence of M2 (P08172 whole entry): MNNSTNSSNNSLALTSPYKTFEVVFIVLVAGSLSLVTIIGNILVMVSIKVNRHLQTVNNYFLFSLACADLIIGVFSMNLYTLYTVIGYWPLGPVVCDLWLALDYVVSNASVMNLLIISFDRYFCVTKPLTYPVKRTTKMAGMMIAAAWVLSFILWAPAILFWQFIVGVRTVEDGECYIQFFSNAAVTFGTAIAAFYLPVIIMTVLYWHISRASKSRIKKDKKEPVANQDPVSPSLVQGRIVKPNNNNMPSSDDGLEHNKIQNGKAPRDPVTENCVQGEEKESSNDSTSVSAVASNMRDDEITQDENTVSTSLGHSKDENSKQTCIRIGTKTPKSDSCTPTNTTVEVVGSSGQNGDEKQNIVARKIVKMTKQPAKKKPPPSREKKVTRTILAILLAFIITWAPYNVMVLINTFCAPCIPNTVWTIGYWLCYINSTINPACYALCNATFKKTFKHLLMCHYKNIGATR

## COc1ccccc1C(Cc1ccccc1)N1CCCCC1 (stereo not shown) [2-MXP, 2-methoxydiphenidine]
Alpha2C
  Ki: 1940 nM
NMDA receptor
  effect on NMDAR-fEPSP: abolished
Sigma 2
  Ki: 508 nM
Alpha2A
  Ki: 2000 nM
AMPA receptor; 50 and 100 μM, without AMPA and GABA receptor antagonists
  effect on AMPA receptor-mediated fEPSP: No reduction of the AMPA receptor-mediated fEPSP was seen
AMPA receptor; hippocampal slices
  potency as antagonist of NMDAR relative to AMPA receptor responses: > 50 times

## c1ccc(CC(c2ccccc2)N2CCCCC2)cc1 (stereo not shown) [DPH, diphenidine]
Alpha2C
  Ki: 3050 nM
H3
  Ki: 1020 nM
Sigma 2
  Ki: 193 nM
NET
  Ki: 2810 nM
M2
  Ki: 3700 nM
Alpha2B
  Ki: 4380 nM
M1
  Ki: 2650 nM
